Source: patent US10633386B2, “BET protein degraders” (THE REGENTS OF THE UNIVERSITY OF MICHIGAN, priority 2016, dated 2020)
Like-named read-outs stand apart in the source and are kept apart here. Blank lines part the entries; values can stand above or below the compound they belong to.

Tests used:
Format in all cases: cell-based
SKLU-1 = assay: Cell growth inhibition (CellTiter-Glo), NSCLC line SKLU-1; settings: SKLU-1 non-small cell lung cancer cell line, 4 days
Description: (§1) Cell growth inhibitory activity of representative BET bromodomain degraders in representative non-small cell lung cancer cell lines was determined using the CellTiter-Glo® Luminescent Cell Viability Assay. Cells were seeded in 384-well white opaque cell culture plates at a density of 2,000 cells/well with serially diluted compounds and incubated at 37° C. in an atmosphere of 95% air and 5% CO2 for 4 days. Cell viability was determined using the CellTiter-Glo® Luminescent Cell Viability Assay Kit (Promega, Madison, Wis.) according to the manufacture's instruction. Briefly, a volume of CellTiter-Glo® Reagent equal to the volume of cell culture medium was added to each well, and then the plates were incubated at room temperature for 10-20 minutes. The luminescent signal was measured using a Tecan Infinite M1000 multimode microplate reader (Tecan, Morrisville, N.C.). The half maximal inhibitory concentration (IC50) was calculated using the GraphPad Prism 5 software (GraphPad Software, La Jolla, Calif.). Cpd. A is a BET bromodomain inhibitor, see U.S. Appl.

H1975 = assay: Cell growth inhibition (CellTiter-Glo), NSCLC line H1975; settings: H1975 non-small cell lung cancer cell line, 4 days
Description: as §1

H520 = assay: Cell growth inhibition (CellTiter-Glo), NSCLC line H520; settings: H520 non-small cell lung cancer cell line, 4 days
Description: as §1

H1648 = assay: Cell growth inhibition (CellTiter-Glo), NSCLC line H1648; settings: H1648 non-small cell lung cancer cell line, 4 days
Description: as §1

H2009 = assay: Cell growth inhibition (CellTiter-Glo), NSCLC line H2009; settings: H2009 non-small cell lung cancer cell line, 4 days
Description: as §1

H322 = assay: Cell growth inhibition (CellTiter-Glo), NSCLC line H322; settings: H322 non-small cell lung cancer cell line, 4 days
Description: as §1

H1299 = assay: Cell growth inhibition (CellTiter-Glo), NSCLC line H1299; settings: H1299 non-small cell lung cancer cell line, 4 days
Description: as §1

A549 = assay: Cell growth inhibition (CellTiter-Glo), NSCLC line A549; settings: A549 non-small cell lung cancer cell line, 4 days
Description: as §1

H460 = assay: Cell growth inhibition (CellTiter-Glo), NSCLC line H460; settings: H460 non-small cell lung cancer cell line, 4 days
Description: as §1

H23 = assay: Cell growth inhibition (CellTiter-Glo), NSCLC line H23; settings: H23 non-small cell lung cancer cell line, 4 days
Description: as §1

MDA-MB-453 = assay: Cell growth inhibition (CellTiter-Glo), breast cancer line MDA-MB-453; settings: MDA-MB-453 breast cancer cell line, 4 days
Description: (§2) Cell growth inhibitory activity of representative BET bromodomain degraders in representative breast cancer cell lines was determined using the CellTiter-Glo® Luminescent Cell Viability Assay. SUM-52 and SUM-159 cell lines were established at the University of Michigan Comprehensive Cancer Center. All the other breast cancer cell lines were obtained from the ATCC (Manassas, Va.). Cells were seeded in 384-well cell culture plates at a density of 1,000-2,500 cells/well with serially diluted compounds and incubated at 37° C. in an atmosphere of 95% air and 5% CO2 for 4 days. Cell viability was determined using the CellTiter-Glo® Luminescent Cell Viability Assay Kit (Promega, Madison, Wis.) according to the manufacture's instruction. Briefly, a volume of CellTiter-Glo® Reagent equal to the volume of cell culture medium was added to each well, and then the plates were incubated at room temperature for 20-60 minutes. The luminescent signal was measured using a Tecan Infinite M1000 multimode microplate reader (Tecan, Morrisville, N.C.). The half maximal inhibitory concentration (IC50) was calculated using the GraphPad Prism 5 software (GraphPad Software, La Jolla, Calif.). “Thd” is thalidomide.

HCC1187 = assay: Cell growth inhibition (CellTiter-Glo), breast cancer line HCC1187; settings: 4 days
Description: as §2

BT-20 = assay: Cell growth inhibition (CellTiter-Glo), breast cancer line BT-20; settings: BT-20 breast cancer cell line, 4 days
Description: as §2

HCC1395 = assay: Cell growth inhibition (CellTiter-Glo), breast cancer line HCC1395; settings: 4 days
Description: as §2

Lovo = assay: Cell growth inhibition (CellTiter-Glo), colon cancer line Lovo
Description: as §1, with “Appl. No. 62/121,637, having the following structure:” for “Appl.”
(§3) Cell growth inhibitory activity of representative BET bromodomain degraders in representative colon cancer cell lines, see Table 7, was determined as described in Example 17.

RKO = assay: Cell growth inhibition (CellTiter-Glo), colon cancer line RKO
Description: as §1, with “Appl. No. 62/121,637, having the following structure:” for “Appl.”
as §3

SW480 = assay: Cell growth inhibition (CellTiter-Glo), colon cancer line SW480
Description: as §1, with “Appl. No. 62/121,637, having the following structure:” for “Appl.”
as §3

HCT116 = assay: Cell growth inhibition (CellTiter-Glo), colon cancer line HCT116
Description: as §1, with “Appl. No. 62/121,637, having the following structure:” for “Appl.”
as §3

H508 = assay: Cell growth inhibition (CellTiter-Glo), colon cancer line H508
Description: as §1, with “Appl. No. 62/121,637, having the following structure:” for “Appl.”
as §3

LS123 = assay: Cell growth inhibition (CellTiter-Glo), colon cancer line LS123
Description: as §1, with “Appl. No. 62/121,637, having the following structure:” for “Appl.”
as §3

LS411N = assay: Cell growth inhibition (CellTiter-Glo), colon cancer line LS411N
Description: as §1, with “Appl. No. 62/121,637, having the following structure:” for “Appl.”
as §3

LS1034 = assay: Cell growth inhibition (CellTiter-Glo), colon cancer line LS1034
Description: as §1, with “Appl. No. 62/121,637, having the following structure:” for “Appl.”
as §3

SW1412 = assay: Cell growth inhibition (CellTiter-Glo), colon cancer line SW1412
Description: as §1, with “Appl. No. 62/121,637, having the following structure:” for “Appl.”
as §3

SMILES: CCn1nc(C2CC2)cc1Nc1nc(COC)nc2[nH]c3cc(-c4c(C)noc4C)c(OC)cc3c12 [Cpd. A, reference compound]
- IC50 (SKLU-1; Homo sapiens, SK-LU-1, 96 h): 0.04 µM
- IC50 (H1975; Homo sapiens, NCI-H1975, 96 h): 0.04 µM
- IC50 (H520; Homo sapiens, NCI-H520, 96 h): 0.28 µM
- IC50 (H1648; Homo sapiens, NCI-H1648, 96 h): 0.14 µM
- IC50 (H2009; Homo sapiens, NCI-H2009, 96 h): 0.17 µM
- IC50 (H322; NCI-H322, 96 h): 0.34 µM
- IC50 (H1299; Homo sapiens, NCI-H1299, 96 h): 0.06 µM
- IC50 (A549; Homo sapiens, 96 h): 0.02 µM
- IC50 (H460; Homo sapiens, NCI-H460, 96 h): 1.79 µM
- IC50 (H23; Homo sapiens, NCI-H23, 96 h): 0.13 µM
- IC50 (MDA-MB-453; Homo sapiens, 96 h): 0.04 µM
- IC50 (HCC1187; Homo sapiens, 96 h): 0.96 µM
- IC50 (BT-20; Homo sapiens, 96 h): 2.41 µM
- IC50 (HCC1395; Homo sapiens, 96 h): 1.05 µM
- IC50 (Lovo; Homo sapiens): 0.044 ± 0.017 µM
- IC50 (RKO; Homo sapiens): 0.272 ± 0.235 µM
- IC50 (SW480; Homo sapiens): 0.567 ± 0.01 µM
- IC50 (HCT116; Homo sapiens, HCT-116): 1.16 ± 0.179 µM
- IC50 (H508; Homo sapiens, NCI-H508): 0.167 ± 0.09 µM
- IC50 (LS123; Homo sapiens, LS-123): 0.739 ± 0.68 µM
- IC50 (LS411N; Homo sapiens, LS-411N): 0.11 ± 0.09 µM
- IC50 (LS1034; Homo sapiens, LS-1034): 0.455 ± 0.43 µM
- IC50 (SW1412): 0.04 ± 0.02 µM

SMILES: CCn1nc(C2CC2)cc1Nc1nc(C(=O)NCCCOCCOCCOCCCNc2cccc3c2C(=O)N(C2CCC(=O)NC2=O)C3=O)nc2[nH]c3cc(-c4c(C)noc4C)c(OC)cc3c12 (stereo not shown) [Cpd. No. 4]
- IC50 (SKLU-1; Homo sapiens, SK-LU-1, 96 h): 0.003 µM
- IC50 (H1975; Homo sapiens, NCI-H1975, 96 h): 0.003 µM
- IC50 (H520; Homo sapiens, NCI-H520, 96 h): 0.003 µM
- IC50 (H1648; Homo sapiens, NCI-H1648, 96 h): 0.005 µM
- IC50 (H2009; Homo sapiens, NCI-H2009, 96 h): 0.016 µM
- IC50 (H322; NCI-H322, 96 h): 0.044 µM
- IC50 (H1299; Homo sapiens, NCI-H1299, 96 h): 0.069 µM
- IC50 (A549; Homo sapiens, 96 h): 0.119 µM
- IC50 (H460; Homo sapiens, NCI-H460, 96 h): 0.505 µM
- IC50 (H23; Homo sapiens, NCI-H23, 96 h): 0.612 µM
- IC50 (MDA-MB-453; Homo sapiens, 96 h): 0.002 µM
- IC50 (HCC1187; Homo sapiens, 96 h): 0.003 µM
- IC50 (BT-20; Homo sapiens, 96 h): 0.025 µM
- IC50 (HCC1395; Homo sapiens, 96 h): 0.277 µM
- IC50 (Lovo; Homo sapiens): 0.013 ± 0.014 µM
- IC50 (RKO; Homo sapiens): 0.046 ± 0.001 µM
- IC50 (SW480; Homo sapiens): 0.037 ± 0.01 µM
- IC50 (HCT116; Homo sapiens, HCT-116): 0.13 ± 0.03 µM
- IC50 (H508; Homo sapiens, NCI-H508): 0.054 ± 0.03 µM
- IC50 (LS123; Homo sapiens, LS-123): 0.011 ± 0.01 µM
- IC50 (LS411N; Homo sapiens, LS-411N): 0.1 ± 0.06 µM
- IC50 (LS1034; Homo sapiens, LS-1034): 0.097 ± 0.02 µM
- IC50 (SW1412): 0.009 ± 0.004 µM

- IC50 (SKLU-1; Homo sapiens, SK-LU-1, 96 h): 0.011 µM
- IC50 (H1975; Homo sapiens, NCI-H1975, 96 h): 0.016 µM
- IC50 (H520; Homo sapiens, NCI-H520, 96 h): 0.011 µM
- IC50 (H1648; Homo sapiens, NCI-H1648, 96 h): 0.022 µM
- IC50 (H2009; Homo sapiens, NCI-H2009, 96 h): 0.034 µM
- IC50 (H322; NCI-H322, 96 h): 0.093 µM
- IC50 (H1299; Homo sapiens, NCI-H1299, 96 h): 0.228 µM
- IC50 (A549; Homo sapiens, 96 h): 0.157 µM
- IC50 (H460; Homo sapiens, NCI-H460, 96 h): 51 µM
- IC50 (Lovo; Homo sapiens): 0.046 ± 0.049 µM
- IC50 (RKO; Homo sapiens): 0.241 ± 0.027 µM
- IC50 (SW480; Homo sapiens): 0.247 ± 0.06 µM
- IC50 (HCT116; Homo sapiens, HCT-116): 0.585 ± 0.07 µM
- IC50 (H508; Homo sapiens, NCI-H508): 0.41 ± 0.15 µM
- IC50 (LS123; Homo sapiens, LS-123): 0.074 ± 0.05 µM
- IC50 (LS411N; Homo sapiens, LS-411N): 0.56 ± 0.38 µM
- IC50 (LS1034; Homo sapiens, LS-1034): 0.368 ± 0.17 µM
- IC50 (SW1412): 0.034 ± 0.02 µM
SMILES: CCn1nc(C2CC2)cc1Nc1nc(C(=O)NCCCCNc2cccc3c2C(=O)N(C2CCC(=O)NC2=O)C3=O)nc2[nH]c3cc(-c4c(C)noc4C)c(OC)cc3c12 (stereo not shown) [Cpd. No. 9]
- IC50 (H23; Homo sapiens, NCI-H23, 96 h): 3.07 µM

- IC50 (SKLU-1): > 5 µM
- IC50 (H1975): > 5 µM
- IC50 (H520): 4.2 µM
- IC50 (H1648): > 5 µM
- IC50 (H2009): > 5 µM
- IC50 (H322): > 5 µM
- IC50 (H1299): > 5 µM
- IC50 (A549): > 5 µM
- IC50 (H460): > 5 µM
- IC50 (MDA-MB-453): > 5 µM
- IC50 (HCC1187): > 5 µM
- IC50 (BT-20): > 5 µM
- IC50 (HCC1395): > 5 µM
- IC50 (Lovo): > 5 µM
- IC50 (RKO): > 5 µM
- IC50 (SW480): > 5 µM
- IC50 (HCT116): > 5 µM
- IC50 (H508): > 5 µM
- IC50 (LS123): > 5 µM
- IC50 (LS411N): > 5 µM
- IC50 (LS1034): > 5 µM
- IC50 (SW1412): > 5 µM
SMILES: Cc1sc2c(c1C)C(c1ccc(Cl)cc1)=N[C@@H](CC(=O)NCCCCNC(=O)COc1cccc3c1C(=O)N(C1CCC(=O)NC1=O)C3=O)c1nnc(C)n1-2 (stereo partly shown) [dBET1, reference compound]
- IC50 (H23): > 5 µM
